Results reported in US12545639B2, “3-substituted phenylamidine compounds, preparation and use thereof” (PI INDUSTRIES LTD., priority 2019, dated 2026).

Columns and labels:
Pyricularia oryzae = assay: microbe, parasite or virus in culture; type: cell-based; details: 168 h, read-out: control compared to the untreated check (radial growth)
Botrytis cinerea = Botrytis cinerea (gray mold) in vitro test, radial growth on potato dextrose agar; type: cell-based; details: 168 h, 300 ppm in potato dextrose agar, 22° C., 90% relative humidity, seven days, read-out: control compared to the untreated check (radial growth)
Alternaria solani = Alternaria solani (early blight of tomato/potato) in vitro test, radial growth on potato dextrose agar; type: cell-based; details: 168 h, 300 ppm in potato dextrose agar, 25° C., 60% relative humidity, seven days, read-out: control compared to the untreated check (radial growth)
[1] = tested on: Septoria lycopersici/Corynespora cassicola (CORYCA); assay: Septoria lycopersici/Corynespora cassicola (CORYCA) (leaf spot of tomato) in vitro test, radial growth on potato dextrose agar; type: cell-based; details: 168 h, 300 ppm in potato dextrose agar, 25° C., 70% relative humidity, seven days, read-out: control compared to the untreated check (radial growth)
Phakopsora pachyrhizi = Phakopsora pachyrhizi test in soybean, preventive, in vivo on plants; details: in Glycine max, read-out: Efficacy (% control), disease severity compared to the untreated check
Rhizoctonia solani = Rhizoctonia solani (rice sheath blight/potato black scurf) in vitro test, radial growth on potato dextrose agar; type: cell-based; details: 168 h, 300 ppm in potato dextrose agar, 25° C., 60% relative humidity, seven days, read-out: control compared to the untreated check (radial growth)

CCN(C)C=Nc1cc(F)cc(N(C)c2cc(C)cc(F)c2)c1C [Compound 119, N-ethyl-N′-(5-fluoro-3-((3-fluoro-5-methylphenyl)(methyl)amino)-2-methylphenyl)-N-methylformimidamide]
≥ 70%: inhibition of growth at 300 ppm (Pyricularia oryzae) | inhibition of growth at 300 ppm (Botrytis cinerea) | inhibition of growth at 300 ppm (Alternaria solani) | inhibition of growth at 300 ppm [1] | pest or weed control at 500 ppm (Phakopsora pachyrhizi)

CCN(C)C=Nc1cc(OC)cc(Nc2ccc(F)c(OC)c2)c1C [Compound 276, N-ethyl-N′-(3-((4-fluoro-3-methoxyphenyl)amino)-5-methoxy-2-methylphenyl)-N-methylformimidamide]
≥ 70%: inhibition of growth at 300 ppm (Pyricularia oryzae) | inhibition of growth at 300 ppm (Rhizoctonia solani) | inhibition of growth at 300 ppm (Alternaria solani) | inhibition of growth at 300 ppm [1] | pest or weed control at 500 ppm (Phakopsora pachyrhizi)

CCN(C)C=Nc1cc(F)cc(Nc2ccc(F)cc2F)c1C [Compound 76, N′-(3-((2,4-difluorophenyl)amino)-5-fluoro-2-methylphenyl)-N-ethyl-N-methylformimidamide]
≥ 70%: inhibition of growth at 300 ppm (Pyricularia oryzae) | inhibition of growth at 300 ppm (Rhizoctonia solani) | inhibition of growth at 300 ppm (Botrytis cinerea) | inhibition of growth at 300 ppm (Alternaria solani) | inhibition of growth at 300 ppm [1]

CCN(C)C=Nc1cc(C#N)cc(Cc2cccc(F)c2)c1C [Compound 297, N′-(5-cyano-3-(3-fluorobenzyl)-2-methylphenyl)-N-ethyl-N-methylformimidamide]
≥ 70%: inhibition of growth at 300 ppm (Pyricularia oryzae) | inhibition of growth at 300 ppm (Botrytis cinerea) | inhibition of growth at 300 ppm (Alternaria solani) | inhibition of growth at 300 ppm [1] | pest or weed control at 500 ppm (Phakopsora pachyrhizi)

CCN(C)C=Nc1cc(C)cc(N(C)c2cccc(C)c2)c1Cl [Compound 43, N′-(2-chloro-5-methyl-3-(methyl(m-tolyl)amino)phenyl)-N-ethyl-N-methylformimidamide]
≥ 70%: inhibition of growth at 300 ppm (Botrytis cinerea) | inhibition of growth at 300 ppm (Alternaria solani) | inhibition of growth at 300 ppm [1] | pest or weed control at 500 ppm (Phakopsora pachyrhizi)

CCN(C)C=Nc1cc(F)cc(Nc2ccccc2OC(F)(F)F)c1C [Compound 303, N-ethyl-N′-(5-fluoro-2-methyl-3-((2-(trifluoromethoxy)phenyl)amino)phenyl)-N-methylformimidamide]
≥ 70%: inhibition of growth at 300 ppm (Pyricularia oryzae) | inhibition of growth at 300 ppm (Rhizoctonia solani) | inhibition of growth at 300 ppm (Botrytis cinerea) | inhibition of growth at 300 ppm (Alternaria solani) | inhibition of growth at 300 ppm [1]

CCN(C)C=Nc1cc(F)cc(Nc2ccc(Cl)cc2F)c1C [Compound 136, N′-(3-((4-chloro-2-fluorophenyl)amino)-5-fluoro-2-methylphenyl)-N-ethyl-N-methylformimidamide]
≥ 70%: inhibition of growth at 300 ppm (Pyricularia oryzae) | inhibition of growth at 300 ppm (Rhizoctonia solani) | inhibition of growth at 300 ppm (Botrytis cinerea) | inhibition of growth at 300 ppm (Alternaria solani) | inhibition of growth at 300 ppm [1]

CCN(C)C=Nc1cc(Cl)cc(Nc2cccc(F)c2)c1C [Compound 166, N′-(5-chloro-3-((3-fluorophenyl)amino)-2-methylphenyl)-N-ethyl-N-methylformimidamide]
≥ 70%: inhibition of growth at 300 ppm (Pyricularia oryzae) | inhibition of growth at 300 ppm (Botrytis cinerea) | inhibition of growth at 300 ppm (Alternaria solani) | inhibition of growth at 300 ppm [1]

CCN(C)C=Nc1cc(C)cc(Nc2ccccc2OC(F)(F)F)c1Cl [Compound 302, N′-(2-chloro-5-methyl-3-((2-(trifluoromethoxy)phenyl)amino)phenyl)-N-ethyl-N-methylformimidamide]
≥ 70%: inhibition of growth at 300 ppm (Pyricularia oryzae) | inhibition of growth at 300 ppm (Rhizoctonia solani) | inhibition of growth at 300 ppm (Botrytis cinerea) | inhibition of growth at 300 ppm (Alternaria solani) | inhibition of growth at 300 ppm [1]

CCN(C)C=Nc1cc(F)cc(N(C)c2cc(F)cc(F)c2)c1C [Compound 84, N′-(3-((3,5-difluorophenyl)(methyl)amino)-5-fluoro-2-methylphenyl)-N-ethyl-N-methylformimidamide]
≥ 70%: inhibition of growth at 300 ppm (Rhizoctonia solani) | inhibition of growth at 300 ppm (Botrytis cinerea) | inhibition of growth at 300 ppm (Alternaria solani) | inhibition of growth at 300 ppm [1] | pest or weed control at 500 ppm (Phakopsora pachyrhizi)

CCN(C)C=Nc1cc(C)cc(N(C)c2ccccc2)c1Cl [Compound 10, N′-(2-chloro-5-methyl-3-(methyl(phenyl)amino)phenyl)-N-ethyl-N-methylformimidamide]
≥ 70%: inhibition of growth at 300 ppm (Pyricularia oryzae) | inhibition of growth at 300 ppm (Botrytis cinerea) | inhibition of growth at 300 ppm (Alternaria solani) | inhibition of growth at 300 ppm [1]

CCN(C)C=Nc1cc(F)cc(Cc2ccccc2F)c1C [Compound 141, N-ethyl-N′-(5-fluoro-3-(2-fluorobenzyl)-2-methylphenyl)-N-methylformimidamide]
≥ 70%: inhibition of growth at 300 ppm (Pyricularia oryzae) | inhibition of growth at 300 ppm (Rhizoctonia solani) | inhibition of growth at 300 ppm (Botrytis cinerea) | inhibition of growth at 300 ppm [1]

CCN(C)C=Nc1cc(F)cc(Nc2cccc(OC)c2)c1C [Compound 30, N-ethyl-N′-(5-fluoro-3-((3-methoxyphenyl)amino)-2-methylphenyl)-N-methylformimidamide]
≥ 70%: inhibition of growth at 300 ppm (Pyricularia oryzae) | inhibition of growth at 300 ppm (Rhizoctonia solani) | inhibition of growth at 300 ppm (Alternaria solani) | inhibition of growth at 300 ppm [1] | pest or weed control at 500 ppm (Phakopsora pachyrhizi)

CCc1cccc(Nc2cc(Cl)cc(N=CN(C)CC)c2C)n1 [Compound 243, N′-(5-chloro-3-((6-ethylpyridin-2-yl)amino)-2-methylphenyl)-N-ethyl-N-methylformimidamide]
≥ 70%: inhibition of growth at 300 ppm (Pyricularia oryzae) | inhibition of growth at 300 ppm (Rhizoctonia solani) | inhibition of growth at 300 ppm (Alternaria solani) | inhibition of growth at 300 ppm [1]

CCN(C)C=Nc1cc(F)cc(N(C)c2ccc(Cl)cc2F)c1C [Compound 140, N′-(3-((4-chloro-2-fluorophenyl)(methyl)amino)-5-fluoro-2-methylphenyl)-N-ethyl-N-methylformimidamide]
≥ 70%: inhibition of growth at 300 ppm (Pyricularia oryzae) | inhibition of growth at 300 ppm (Rhizoctonia solani) | inhibition of growth at 300 ppm (Botrytis cinerea) | inhibition of growth at 300 ppm (Alternaria solani) | inhibition of growth at 300 ppm [1]

CCN(C)C=Nc1cc(F)cc(N(C)c2cc(C)ccc2Cl)c1C [Compound 117, N′-(3-((2-chloro-5-methylphenyl)(methyl)amino)-5-fluoro-2-methylphenyl)-N-ethyl-N-methylformimidamide]
≥ 70%: inhibition of growth at 300 ppm (Pyricularia oryzae) | inhibition of growth at 300 ppm (Botrytis cinerea) | inhibition of growth at 300 ppm (Alternaria solani) | inhibition of growth at 300 ppm [1] | pest or weed control at 500 ppm (Phakopsora pachyrhizi)

CCN(C)C=Nc1cc(C)cc(Nc2ccccc2F)c1C [Compound 6, N-ethyl-N′-(3-((2-fluorophenyl)amino)-2,5-dimethylphenyl)-N-methylformimidamide]
≥ 70%: inhibition of growth at 300 ppm (Pyricularia oryzae) | inhibition of growth at 300 ppm (Rhizoctonia solani) | inhibition of growth at 300 ppm (Alternaria solani) | inhibition of growth at 300 ppm [1]

CCN(C)C=Nc1cc(Cl)cc(N(C)c2ccccc2)c1C [Compound 159, N′-(5-chloro-2-methyl-3-(methyl(phenyl)amino)phenyl)-N-ethyl-N-methylformimidamide]
≥ 70%: inhibition of growth at 300 ppm (Pyricularia oryzae) | inhibition of growth at 300 ppm (Botrytis cinerea) | inhibition of growth at 300 ppm (Alternaria solani) | inhibition of growth at 300 ppm [1] | pest or weed control at 500 ppm (Phakopsora pachyrhizi)

CCN(C)C=Nc1cc(Cl)cc(Cc2ccc(F)c(Cl)c2)c1C [Compound 130, N′-(5-chloro-3-(3-chloro-4-fluorobenzyl)-2-methylphenyl)-N-ethyl-N-methylformimidamide]
≥ 70%: inhibition of growth at 300 ppm (Pyricularia oryzae) | inhibition of growth at 300 ppm (Rhizoctonia solani) | inhibition of growth at 300 ppm (Alternaria solani) | inhibition of growth at 300 ppm [1] | pest or weed control at 500 ppm (Phakopsora pachyrhizi)

CCN(C)C=Nc1cc(C#N)cc(Cc2ccccc2)c1C [Compound 308, N′-(3-benzyl-5-cyano-2-methylphenyl)-N-ethyl-N-methylformimidamide]
≥ 70%: inhibition of growth at 300 ppm (Pyricularia oryzae) | inhibition of growth at 300 ppm (Rhizoctonia solani) | inhibition of growth at 300 ppm (Botrytis cinerea) | inhibition of growth at 300 ppm (Alternaria solani) | inhibition of growth at 300 ppm [1]

CCN(C)C=Nc1cc(F)cc(Nc2c(C)cccc2F)c1C [Compound 121, N-ethyl-N′-(5-fluoro-3-((2-fluoro-6-methylphenyl)amino)-2-methylphenyl)-N-methylformimidamide]
≥ 70%: inhibition of growth at 300 ppm (Pyricularia oryzae) | inhibition of growth at 300 ppm (Alternaria solani) | inhibition of growth at 300 ppm [1] | pest or weed control at 500 ppm (Phakopsora pachyrhizi)

CCN(C)C=Nc1cc(OC)cc(Nc2ccccc2OC(F)(F)F)c1C [Compound 300, N-ethyl-N′-(5-methoxy-2-methyl-3-((2-(trifluoromethoxy)phenyl)amino)phenyl)-N-methylformimidamide]
≥ 70%: inhibition of growth at 300 ppm (Pyricularia oryzae) | inhibition of growth at 300 ppm (Rhizoctonia solani) | inhibition of growth at 300 ppm (Alternaria solani) | inhibition of growth at 300 ppm [1] | pest or weed control at 500 ppm (Phakopsora pachyrhizi)

CCN(C)C=Nc1cc(C)cc(Nc2ccc(F)c(F)c2)c1Cl [Compound 72, N′-(2-chloro-3-((3,4-difluorophenyl)amino)-5-methylphenyl)-N-ethyl-N-methylformimidamide]
≥ 70%: inhibition of growth at 300 ppm (Pyricularia oryzae) | inhibition of growth at 300 ppm (Rhizoctonia solani) | inhibition of growth at 300 ppm (Botrytis cinerea) | inhibition of growth at 300 ppm (Alternaria solani) | inhibition of growth at 300 ppm [1]

CCN(C)C=Nc1cc(C)cc(N(C)c2c(C)cccc2F)c1Cl [Compound 138, N′-(2-chloro-3-((2-fluoro-6-methylphenyl)(methyl)amino)-5-methylphenyl)-N-ethyl-N-methylformimidamide]
≥ 70%: inhibition of growth at 300 ppm (Pyricularia oryzae) | inhibition of growth at 300 ppm (Rhizoctonia solani) | inhibition of growth at 300 ppm (Alternaria solani) | inhibition of growth at 300 ppm [1]
